Reference: ChEMBL document CHEMBL4393653, “Applications of Deuterium in Medicinal Chemistry” (J Med Chem, 2019)

Columns and labels:
[1] = Cmax in rat at 10 mg/kg, po; type: ADME, organism-based; set-up: dose 10 mg/kg, route oral; conditions: in vivo
[2] = Half life in rat at 10 mg/kg, po; type: ADME, organism-based; conditions: in vivo
[3] = Half life in human liver microsomes; type: ADME, Microsome

| Cmax [1] [ng/mL] | half-life [2] [h] | half-life [3] [h] | SMILES |
| --- | --- | --- | --- |
| 4180 | 4.29 |  | [2H]c1c([2H])c([2H])c(C2=C(c3ccc(S(C)(=O)=O)cc3)COC2=O)c([2H])c1[2H] |
| 2420 | 4.18 |  | CS(=O)(=O)c1ccc(C2=C(c3ccccc3)C(=O)OC2)cc1 [ROFECOXIB] |

Further lines, the compound ahead of its results:

| SMILES | Cmax [1] [ng/mL] | half-life [2] [h] | half-life [3] [h] |
| --- | --- | --- | --- |
| [2H]C([2H])([2H])c1nnc(C(C)C)n1[C@@H]1C[C@H]2CC[C@@H](C1)N2CC[C@H](NC(=O)C1CCC(F)(F)CC1)c1ccccc1 |  |  | 0.758 |
| [2H]C([2H])([2H])c1nnc(C(C)C)n1[C@@H]1C[C@H]2CC[C@@H](C1)N2C([2H])([2H])C[C@H](NC(=O)C1CCC(F)(F)CC1)c1ccccc1 |  |  | 2.42 |
| Cc1nnc(C(C)C)n1[C@@H]1C[C@H]2CC[C@@H](C1)N2CC[C@H](NC(=O)C1CCC(F)(F)CC1)c1ccccc1 [MARAVIROC] |  |  | 1.62 |
